Two molecules from patent publication EP0596057B1, “QUINUCLIDINE DERIVATIVES AS SQUALENE SYNTHASE INHIBITORS” (priority 1992, dated 1993) can be followed below.

One test has as its target T1, Squalene synthase (Rattus norvegicus, UniProt Q02769).
T1 construct: from tissue; host or cells: rat liver microsomes
T1 sequence (Q02769 1-416): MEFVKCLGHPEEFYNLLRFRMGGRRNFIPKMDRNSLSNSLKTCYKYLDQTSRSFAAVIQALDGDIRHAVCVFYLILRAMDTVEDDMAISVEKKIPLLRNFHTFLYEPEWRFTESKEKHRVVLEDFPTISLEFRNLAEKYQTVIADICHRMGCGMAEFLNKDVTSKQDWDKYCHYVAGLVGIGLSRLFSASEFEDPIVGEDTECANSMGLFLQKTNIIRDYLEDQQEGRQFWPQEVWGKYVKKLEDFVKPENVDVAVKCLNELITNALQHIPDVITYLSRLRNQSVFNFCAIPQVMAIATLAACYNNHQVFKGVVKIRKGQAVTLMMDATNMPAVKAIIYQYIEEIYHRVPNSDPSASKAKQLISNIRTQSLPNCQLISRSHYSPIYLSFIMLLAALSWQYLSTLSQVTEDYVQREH
As to the kind of experiment: Inhibition of Squalene synthase (formation of squalene from tritiated farnesyl pyrophosphate, rat liver microsomal protein). The test is classed as biochemical. The conditions noted are these: substrate 1-[3H]-farnesyl pyrophosphate 20µM, 37°C, 15 minutes, read-out: IC50 (concentration which results in a 50% inhibition of squalene production). As to the method:
In this test, the ability of a compound to prevent the formation of squalene from a radioactive substrate (tritiated farnesyl pyrophosphate) is assessed.
The test compound is incubated at a concentration of 25 micromolar in 200µl of a buffered solution containing potassium phosphate (50mM), MgCl2 (4.95mM), KF (9.9mM), NADPH (0.9mM) and rat liver microsomal protein (20µg). Rat liver microsomes are prepared by the method described in published European Patent Application No. 324,421 and stored in liquid nitrogen prior to assay. Assay vials are kept at 37°C throughout the incubation.
The reaction is started with the addition of the substrate (1-[^3H]-farnesyl pyrophosphate), final concentration 20µM, and stopped after 15 minutes reaction time with the addition of 50µl of 4% KOH. The reaction products are separated from unreacted substrate after application to a C-18 octadecyl lccBond column (Analytichem Int product No. 617101). An aqueous fraction is eluted with 250µl of 0.1M KOH. Squalene is then eluted with 1.0 ml 10% ethylacetate in hexane and radioactivity determined. The difference in radioactivity in the presence and absence of the test compound is used to determine the level of inhibition. […]
On the technique in general: Liver microsomes are a subcellular fraction often used to study metabolism.

For test [1], the system named is de novo hepatic cholesterol synthesis. Kind of test: Acute rat cholesterol synthesis assay (de novo hepatic cholesterol synthesis from 14C-acetate). Format: in vivo. The following applies: female rats, [2-14C]-acetate ip 1 hour after compound, plasma sampled after a further hour, route not stated. As to the method: This is an acute in vivo test in the rat to measure de novo hepatic cholesterol synthesis from exogenously administered ^14C-acetate.
Female rats (35 - 55 g) are housed in reverse lighting conditions (red light from 0200h - 1400h) for a period of about 2 weeks prior to test. Animals are allowed free access to chow and drinking water throughout this period. At test, animals should weigh 125 - 150 g.
Test compounds may be administered by oral gavage, dissolved or suspended in 0.5% polysorbate, or by ip or iv dosing. Control animals receive vehicle alone. After 1 hour the rats are injected ip with 25µCi [2-^14C]-acetate (NEN DUPONT. specific activity, 45-60mCi/mmol NEC-085H, or AMERSHAM specific activity, 50-60mCi/mmol CFA 14) in a volume of 0.25 ml saline (100µCi/ml). After a further hour a blood sample was obtained from the abdominal vena cava under terminal halothane anaesthesia.
1ml of plasma is lyophilised and then saponified in 2ml ethanolic KOH (1 part 33% KOH, 9 parts ethanol) at 75°C for 2 hours. After addition of an equal quantity of water, non-saponifiable lipids are extracted with […] 5ml volumes of hexane. The hexane extracts are evaporated to dryness and the residues dissolved in ethanol to determine cholesterol specific radioactivity. ED50 values can be determined in the standard way.

In the case of `OC1(c2ccc(COc3ccccc3)cc2)CN2CCC1CC2` (centres unmarked) [Example 2, 3-(4-phenoxymethylphenyl)-quinuclidin-3-ol], the IC50 at Squalene synthase amounted to 30 nM.
In turn, `OC1(c2ccc(C#Cc3ccccc3)cc2)CN2CCC1CC2` (centres unmarked) [Example 4, 3-(4-phenylethyn-2-ylphenyl)quinuclidin-3-ol] gave an ED50 in test [1] of 29 mg/kg.

Broadly, the ED50 is the dose that gives a 50% effect, or the effect in half of the subjects. Low readings indicate an effect at a small dose, high ones a need for a large dose.
